Results taken from patent US20230172946A1, “In-situ Gel Forming Ophthalmic Formulations Containing Difluprednate” (IVIEW Therapeutics, Inc., priority 2019, published 2023).

How the values were obtained:
[1] = cited from earlier work
[2] = Solubility of difluprednate with different surfactants/solubilizers; type: physicochemical
Protocol: To improve the solubility of difluprednate, different surfactants/solubilizers were investigated to discover suitable solubilizers. Different surfactants/solubilizers such as Poloxamer 188, Poloxamer 407, polysorbate 80, PEG 40 Caster Oil, PEG 60 Caster Oil, PEG 40 Hydrogenated Castor Oil, Polyoxyl 40 Stearate and Soluplus was dissolved in water with different concentrations. Difluprednate was added into the surfactant solutions with the final difluprednate concentration of 0.05%. The solubility of difluprednate was measured. […] Soluplus is a polyethylene glycol, polyvinyl acetate and polyvinylcaprolactame-based graft copolymer (PVAc-PVCap-PEG). It can form nanomicelles in water or other aqueous solutions, and solubilize poorly soluble difluprednate.

solubility of difluprednate ([2]; 5% Polyoxyethylene Castor Oil (RL-40)): > 98%
Solubility % ([2]; Benzyl Benzoate 2% in water, difluprednate 0.05%): 0.37%
Solubility % ([2]; Glyceryl Tricaprylate 0.2% in water, difluprednate 0.05%): 0.84%
Solubility % ([2]; Hypromellose 0.5% in water, difluprednate 0.05%): 17.6%
Solubility % ([2]; Poloxamer188 0.1% in water, difluprednate 0.05%): 3.59%
Solubility % ([2]; Poloxamer 407 0.2% in water, difluprednate 0.05%): 2.20%
Solubility % ([2]; Polyoxyethylene (23) Cetyl Ether 0.2% in water, difluprednate 0.05%): 7.87%
Solubility % ([2]; Polyoxyethylene (23) Cetyl Ether 0.45% in water, difluprednate 0.05%): 15.41%
Solubility % ([2]; Polyoxyethylene (23) Cetyl Ether 1.0% in water, difluprednate 0.05%): 33.70%
Solubility % ([2]; Polyoxyethylene (40) Monostearate 0.5% in water, difluprednate 0.05%): 42.0%
Solubility % ([2]; Polyoxyethylene (40) Stearate 7.0% in water, difluprednate 0.05%): 5.1%
Solubility % ([2]; Polyoxyethylene (60) Castor Oil 5.0% in water, difluprednate 0.05%): 95.3%
solubility of difluprednate ([2]; Polyoxyethylene (60) Castor Oil, at least 4 or 5% needed): > 95%
Solubility % ([2]; Polyoxyethylene Castor Oil (EL) 5.0% in water, difluprednate 0.05%): 93.5%
Solubility % ([2]; Polyoxyethylene Castor Oil (EL-35) 5.0% in water, difluprednate 0.05% (second entry, r27)): 96.3%
solubility of difluprednate ([2]; Polyoxyethylene Castor Oil (EL-35), at least 4 or 5% needed): > 95%
Solubility % ([2]; Polyoxyethylene Castor Oil (EL-40) 5.0% in water, difluprednate 0.05%): >98.0%
Solubility % ([2]; Polyoxyethylene Hydrogenated Castor Oil (RH-40) 0.53% in water, difluprednate 0.05%): 9.7%
Solubility % ([2]; Polyoxyethylene Hydrogenated Castor Oil (RH-40) 1.0% in water, difluprednate 0.05%): 18.6%
Solubility % ([2]; Polyoxyethylene Hydrogenated Castor Oil (RH-40) 2.0% in water, difluprednate 0.05%): 50.0%
Solubility % ([2]; Polyoxyethylene Hydrogenated Castor Oil (RH-40) 3.0% in water, difluprednate 0.05%): 73.1%
Solubility % ([2]; Polyoxyethylene Hydrogenated Castor Oil (RH-40) 4.0% in water, difluprednate 0.05%): 88.1%
Solubility % ([2]; Polyoxyethylene Hydrogenated Castor Oil (RH-40) 5.0% in water, difluprednate 0.05%): 99.5%
Solubility % ([2]; Polyoxyethylene castor oil (EL-35) 5.0% in water, difluprednate 0.05% (first entry, r11)): 82.9%
Solubility % ([2]; Polyoxyl 20 Cetostearyl Ether 1.0% in water, difluprednate 0.05%): 37.2%
Solubility % ([2]; Polyoxyl 20 Cetostearyl Ether 2.0% in water, difluprednate 0.05%): 74.7%
Solubility % ([2]; Polyoxyl 20 Cetostearyl Ether 3.0% in water, difluprednate 0.05%): 79.9%
Solubility % ([2]; Polyoxyl 20 Cetostearyl Ether 4.0% in water, difluprednate 0.05%): 96.9%
Solubility % ([2]; Polyoxyl 20 Cetostearyl Ether 5.0% in water, difluprednate 0.05%): 96.9%
Solubility % ([2]; Polysorbate 80 0.05% in water, difluprednate 0.05%): 1.75%
Solubility % ([2]; Soluplus 0.9% in water, difluprednate 0.05%): 101.9%
Solubility % ([2]; Soluplus 1.2% in water, difluprednate 0.05%): 102.1%
Solubility % ([2]; Soluplus 1.5% in water, difluprednate 0.05%): 102.1%
Solubility % ([2]; Sucrose Fatty Acid Ester 0.2% in water, difluprednate 0.05%): 2.01%
Solubility % ([2]; Sucrose Fatty Acid Ester 1.0% in water, difluprednate 0.05%): 8.36%
Solubility % ([2]; Vitamin E Polyethylene Glycol Succinate 0.5% in water, difluprednate 0.05%): 25.3%
Structure (SMILES): CCCC(=O)O[C@]1(C(=O)COC(C)=O)CC[C@H]2[C@@H]3C[C@H](F)C4=CC(=O)C=C[C@]4(C)[C@@]3(F)[C@@H](O)C[C@@]21C [Difluprednate]
solubility in water [1]: practically insoluble in water
